Reference: the supplement of paper PMC10307832

Legend:
Assay in all cases: relative viability (nuclei count vs DMSO), 5 days (fraction); higher = more cells survive
[1] = compound: C1=CC2=NC=CN=C2C=C1/C=C/3\C(=O)NC(=O)S3 + NC(=O)Nc1cc(-c2cccc(F)c2)sc1C(=O)N[C@H]1CCCNC1 [AZD7762] (partner 0.2 µM)
How it was run: (§1)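 Lung cancer cell lines in 1536-well plates got either a single drug or a fixed anchor-drug dose together with five library-drug doses (not always all listed) in √10 steps, by pin tool, on the day after seeding. Nuclei were counted after 5 days, and relative viability is the treated-to-vehicle ratio of nuclei counts. Values are medians of duplicate plates.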

[2] = compound: C1=CC2=NC=CN=C2C=C1/C=C/3\C(=O)NC(=O)S3 + Nc1nc2[nH]cc(CCc3ccc(C(=O)N[C@@H](CCC(=O)O)C(=O)O)cc3)c2c(=O)[nH]1 [Pemetrexed] (partner 0.2 µM)
How it was run: as §1

BGJ398 + Phenformin = compound: CCN1CCN(c2ccc(Nc3cc(N(C)C(=O)Nc4c(Cl)c(OC)cc(OC)c4Cl)ncn3)cc2)CC1 [BGJ398] + N=C(N)NC(=N)NCCc1ccccc1 [Phenformin] (partner 250 µM)
How it was run: as §1

[3] = compound: C1=CC2=NC=CN=C2C=C1/C=C/3\C(=O)NC(=O)S3 + Cc1cc(Nc2cc(N3CCN(C)CC3)nc(Sc3ccc(NC(=O)C4CC4)cc3)n2)n[nH]1 [Tozasertib] (partner 0.1 µM)
How it was run: as §1

Cell Line | relative viability ([1]; first compound 0.02 µM) | relative viability ([1]; first compound 0.06325 µM) | relative viability ([1]; first compound 0.2 µM) | relative viability ([1]; first compound 0.6325 µM) | relative viability ([1]; first compound 2 µM) | relative viability ([2]; first compound 0.02 µM) | relative viability ([2]; first compound 0.06325 µM) | relative viability ([2]; first compound 0.2 µM) | relative viability ([2]; first compound 0.6325 µM) | relative viability ([2]; first compound 2 µM) | relative viability (BGJ398 + Phenformin; first compound 0.01 µM) | relative viability (BGJ398 + Phenformin; first compound 0.03162 µM) | relative viability (BGJ398 + Phenformin; first compound 0.1 µM) | relative viability (BGJ398 + Phenformin; first compound 0.3162 µM) | relative viability (BGJ398 + Phenformin; first compound 1 µM) | relative viability ([3]; first compound 0.02 µM) | relative viability ([3]; first compound 0.06325 µM) | relative viability ([3]; first compound 0.2 µM) | relative viability ([3]; first compound 0.6325 µM) | relative viability ([3]; first compound 2 µM)
NCI-H3122 | 0.989 | 1 | 0.984 | 0.991 | 0.913 | 0.224 | 0.216 | 0.205 | 0.2 | 0.195 | 0.353 | 0.387 | 0.373 | 0.339 | 0.347 | 0.401 | 0.418 | 0.331 | 0.38 | 0.4
PC-3 [JPC-3] | 0.966 | 1.02 | 0.9 | 0.846 | 0.713 | 1.19 | 1.17 | 1.2 | 1.19 | 1.23 | 0.468 | – | 0.445 | 0.418 | 0.46 | 0.811 | 0.811 | 0.905 | 0.913 | 0.869
PC-14 | 0.421 | 0.272 | 0.423 | 0.322 | 0.299 | 0.138 | 0.148 | 0.156 | 0.131 | 0.145 | 0.586 | – | 0.642 | – | 0.369 | 0.579 | 0.754 | 0.571 | 0.546 | 0.572
RERF-LC-KJ | 0.707 | 0.894 | 0.962 | 0.943 | 0.624 | 0.525 | 0.501 | 0.465 | 0.489 | 0.455 | 0.449 | 0.422 | 0.416 | 0.432 | 0.493 | 0.443 | 0.613 | 0.592 | 0.452 | 0.46
SW 900 | 0.653 | 0.571 | 0.652 | – | 0.525 | 0.491 | 0.471 | 0.481 | – | 0.487 | 0.639 | 0.702 | 0.559 | 0.196 | 0.279 | 0.453 | 0.607 | 0.702 | 0.545 | 0.566
